Experimental data taken from the supplement of paper PMC8612539.

Test system: Histophilus somni
Assay: minimum inhibitory concentration (MIC)
Description: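 Broth microdilution MIC (Sensititre BOPO7F bovine plate, CLSI methods) of 19 antimicrobials against field isolates of P. multocida, M. haemolytica, H. somni (deep nasopharyngeal swabs) and E. coli, Enterococcus spp. (rectal swabs) from weaned dairy heifers. Incubation 16-24 h at 35 C. MIC is the lowest concentration preventing visible growth. Values with <= or > lie at the tested range limits. Trimethoprim-sulfamethoxazole is given as the trimethoprim component of a 1:19 mixture.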

Measured: minimum inhibitory concentration

CCCN1C[C@H](C)[C@@H](O)[C@](C)(O)[C@@H](CC)OC(=O)[C@H](C)[C@@H](O[C@H]2C[C@@](C)(OC)[C@@H](O)[C@H](C)O2)[C@H](C)[C@@H](O[C@@H]2O[C@H](C)C[C@H](N(C)C)[C@H]2O)[C@](C)(O)C[C@H]1C [Gamithromycin]
≤ 1 µg/mL: isolate (source animal id): 3 | isolate (source animal id): 4 | isolate (source animal id): 7 | isolate (source animal id): 14 | isolate (source animal id): 15 | isolate (source animal id): 17 | isolate (source animal id): 18 | isolate (source animal id): 20 | isolate (source animal id): 23 | isolate (source animal id): 45 | isolate (source animal id): 53 | isolate (source animal id): 83 | isolate (source animal id): 88 | isolate (source animal id): 92 | isolate (source animal id): 93 | isolate (source animal id): 99 | isolate (source animal id): 100 | isolate (source animal id): 105 | isolate (source animal id): 107 | isolate (source animal id): 108 | isolate (source animal id): 109 | isolate (source animal id): 110 | isolate (source animal id): 117 | isolate (source animal id): 121 | isolate (source animal id): 123 | isolate (source animal id): 124 | isolate (source animal id): 127 | isolate (source animal id): 128 | isolate (source animal id): 132 | isolate (source animal id): 135 | isolate (source animal id): 140 | isolate (source animal id): 141 | isolate (source animal id): 144 | isolate (source animal id): 151 | isolate (source animal id): 153 | isolate (source animal id): 157 | isolate (source animal id): 176 | isolate (source animal id): 183 | isolate (source animal id): 186 | isolate (source animal id): 196 | isolate (source animal id): 198 | isolate (source animal id): 200 | isolate (source animal id): 206 | isolate (source animal id): 208 | isolate (source animal id): 210 | isolate (source animal id): 212 | isolate (source animal id): 215 | isolate (source animal id): 216 | isolate (source animal id): 218 | isolate (source animal id): 219 | isolate (source animal id): 224 | isolate (source animal id): 228 | isolate (source animal id): 230 | isolate (source animal id): 233 | isolate (source animal id): 238 | isolate (source animal id): 239 | isolate (source animal id): 241 | isolate (source animal id): 242 | isolate (source animal id): 243 | isolate (source animal id): 245 | isolate (source animal id): 246 | isolate (source animal id): 247 | isolate (source animal id): 248 | isolate (source animal id): 250 | isolate (source animal id): 251 | isolate (source animal id): 252 | isolate (source animal id): 254 | isolate (source animal id): 258 | isolate (source animal id): 259 | isolate (source animal id): 262 | isolate (source animal id): 264 | isolate (source animal id): 265 | isolate (source animal id): 266 | isolate (source animal id): 267 | isolate (source animal id): 269 | isolate (source animal id): 271 | isolate (source animal id): 272 | isolate (source animal id): 274 | isolate (source animal id): 276 | isolate (source animal id): 278 | isolate (source animal id): 280 | isolate (source animal id): 281 | isolate (source animal id): 283 | isolate (source animal id): 288 | isolate (source animal id): 291 | isolate (source animal id): 292 | isolate (source animal id): 296 | isolate (source animal id): 306 | isolate (source animal id): 336 | isolate (source animal id): 337 | isolate (source animal id): 341
4 µg/mL: isolate (source animal id): 130 | isolate (source animal id): 146
> 8 µg/mL: isolate (source animal id): 142 | isolate (source animal id): 147 | isolate (source animal id): 154 | isolate (source animal id): 156
